In patent US11554171B2, “Compounds and methods for the targeted degradation of bromodomain-containing proteins” (Arvinas Operations, Inc., priority 2015, dated 2023):

Tested on: c-myc in 22RV-1 cells
Assay: Human c-myc ELISA assay
Type: cell-based
Conditions: Homo sapiens; for Emax: 22Rv1, 18 h, read-out: Degradation of BRD4: Maximum inhibition (%) c-Myc ELISA in 22RV1 cells; for DC50: 22Rv1, read-out: Degradation of BRD4: DC50 (uM) c-Myc ELISA in 22RV1 cells
Summary of the method: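 22RV-1 cells treated 18 h with 8-point 1:3 compound dilutions (final top 300 nM or 1 μM, 0.1% DMSO). Cells lysed in RIPA buffer with protease/phosphatase inhibitors, and c-myc protein in cleared lysate quantified by ELISA against a standard curve. DC50 reported for c-myc suppression.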

DC50 [µM] | Compound | Emax [%]
> 1 | Cc1ncsc1-c1ccc([C@H](C)NC(=O)[C@H]2C[C@H](O)CN2C(=O)[C@@H](NC(=O)CN2CCC(O[C@H]3C[C@H](NC(=O)C[C@@H]4N=C(c5ccc(Cl)cc5)c5c(sc(C)c5C)-n5c(C)nnc54)C3)CC2)C(C)(C)C)cc1 [Example 345] | < 5
0.01 to 0.1 | Cc1sc2c(c1C)C(c1ccc(Cl)cc1)=N[C@@H](CC(=O)N[C@H]1C[C@H](OC3CCN(CC(=O)N[C@H](C(=O)N4C[C@H](O)C[C@H]4C(=O)N[C@@H](C)c4ccc(-c5scnc5CO)cc4)C(C)(C)C)CC3)C1)c1nnc(C)n1-2 [Example 346] | 90
> 1 | Cc1ncsc1-c1ccc([C@H](C)NC(=O)[C@H]2C[C@@H](O)CN2C(=O)[C@@H](NC(=O)CN2CCC(O[C@H]3C[C@H](NC(=O)C[C@@H]4N=C(c5ccc(Cl)cc5)c5c(sc(C)c5C)-n5c(C)nnc54)C3)CC2)C(C)(C)C)cc1 [Example 347] | < 5
> 1 | Cc1ncsc1-c1ccc([C@H](C)NC(=O)[C@@H]2C[C@@H](O)CN2C(=O)[C@H](NC(=O)CN2CCC(O[C@H]3C[C@H](NC(=O)C[C@@H]4N=C(c5ccc(Cl)cc5)c5c(sc(C)c5C)-n5c(C)nnc54)C3)CC2)C(C)(C)C)cc1 [Example 348] | 46
> 1 | Cc1ncsc1-c1ccc([C@H](C)NC(=O)[C@@H]2C[C@@H](O)CN2C(=O)[C@@H](NC(=O)C[C@@H]2N=C(c3ccc(Cl)cc3)c3c(sc(C)c3C)-n3c(C)nnc32)C(C)(C)C)cc1 [Example 349] | 22
0.1 to 1 | Cc1ncsc1-c1ccc([C@H](C)NC(=O)[C@@H]2C[C@@H](O)CN2C(=O)[C@@H](NC(=O)CN2CCC(N3CCC(NC(=O)C[C@@H]4N=C(c5ccc(Cl)cc5)c5c(sc(C)c5C)-n5c(C)nnc54)CC3)CC2)C(C)(C)C)cc1 [Example 353, (2S,4R)-1-[(2S)-2-{2-[4-(4-{2-[(9S)-7-(4-chlorophenyl)-4,5,13-trimethyl-3-thia-1,8,11,12-tetraazatricyclo[8.3.0.0^2,6]trideca-2(6),4,7,10,12-[0261]pentaen-9-yl]acetamido}piperidin-1-yl)piperidin-1-yl]acetamido}-3,3-dimethylbutanoyl]-4-hydroxy-N-[(1S)-1-[4-(4-methyl-1,3-thiazol-5-yl)phenyl]ethyl]pyrrolidine-2-carboxamide] | > 90
0.01 to 0.1 | Cc1ncsc1-c1ccc([C@H](C)NC(=O)[C@@H]2C[C@@H](O)CN2C(=O)[C@@H](NC(=O)CN2CCN(C3CC4(C3)CN(C(=O)C[C@@H]3N=C(c5ccc(Cl)cc5)c5c(sc(C)c5C)-n5c(C)nnc53)C4)[C@@H](C)C2)C(C)(C)C)cc1 [Example 354, (2S,4R)-1-[(2S)-2-{2-[(3S)-4-(2-{2-[(9S)-7-(4-chlorophenyl)-4,5,13-trimethyl-3-thia-1,8,11,12-tetraazatricyclo[8.3.0.0^2,^6]trideca-2(6),4,7,10,12-pentaen-9-yl]acetyl}-2-azaspiro[3.3]heptan-6-yl)-3-methyl-piperazin-1-yl]acetamido}-3,3-dimethylbutanoyl]-4-hydroxy-N-[(1S)-1-[4-(4-methyl-1,3-thiazol-5-yl)phenyl]ethyl]pyrrolidine-2-carboxamide] | 100
0.01 to 0.1 | Cc1ncsc1-c1ccc([C@H](C)NC(=O)[C@@H]2C[C@@H](O)CN2C(=O)[C@@H](NC(=O)CN2CCN(C3CC4(C3)CN(C(=O)C[C@@H]3N=C(c5ccc(Cl)cc5)c5c(sc(C)c5C)-n5c(C)nnc53)C4)[C@H](C)C2)C(C)(C)C)cc1 [Example 355] | 100
0.01 to 0.1 | Cc1ncsc1-c1ccc([C@H](C)NC(=O)[C@@H]2C[C@@H](O)CN2C(=O)[C@@H](NC(=O)CN2CCN(C3CC4(C3)CN(C(=O)C[C@@H]3N=C(c5ccc(Cl)cc5)c5c(sc(C)c5C)-n5c(C)nnc53)C4)C[C@H]2C)C(C)(C)C)cc1 [Example 356] | 100
0.01 to 0.1 | Cc1ncsc1-c1ccc([C@H](C)NC(=O)[C@@H]2C[C@@H](O)CN2C(=O)[C@@H](NC(=O)CN2C[C@@H](C)N(C3CC4(C3)CN(C(=O)C[C@@H]3N=C(c5ccc(Cl)cc5)c5c(sc(C)c5C)-n5c(C)nnc53)C4)C[C@@H]2C)C(C)(C)C)cc1 [Example 357, (2S,4R)-1-[(2S)-2-{2-[(2S,5R)-4-(2-{2-[(9S)-7-(4-chlorophenyl)-4,5,13-trimethyl-3-thia-1,8,11,12-tetraazatricyclo[8.3.0.0^2,^6]trideca-2(6),4,7,10,12-pentaen-9-yl]acetyl}-2-azaspiro[3.3]heptan-6-yl)-2,5-dimethylpiperazin-1-yl]acetamido}-3,3-dimethylbutanoyl}-4-hydroxy-N-[(1S)-1-[4-(4-methyl-1,3-thiazol-5-yl)phenyl]ethyl]pyrrolidine-2-carboxamide] | 100
0.01 to 0.1 | Cc1ncsc1-c1ccc([C@H](C)NC(=O)[C@@H]2C[C@@H](O)CN2C(=O)[C@@H](NC(=O)CN2CCN(C3CC4(C3)CN(C(=O)C[C@@H]3N=C(c5ccc(Cl)cc5)c5c(sc(C)c5C)-n5c(C)nnc53)C4)C[C@@H]2C)C(C)(C)C)cc1 [Example 358] | > 90
0.01 to 0.1 | Cc1ncsc1-c1ccc([C@H](C)NC(=O)[C@@H]2C[C@@H](O)CN2C(=O)[C@@H](NC(=O)CN2C[C@H](C)N(C3CC4(C3)CN(C(=O)C[C@@H]3N=C(c5ccc(Cl)cc5)c5c(sc(C)c5C)-n5c(C)nnc53)C4)C[C@H]2C)C(C)(C)C)cc1 [Example 359] | > 90
0.1 to 1 | Cc1ncsc1-c1ccc([C@H](C)NC(=O)[C@@H]2C[C@@H](O)CN2C(=O)[C@@H](NC(=O)CN2CCN(C3CC4(C3)CN(C(=O)C[C@@H]3N=C(c5ccc(Cl)cc5)c5c(sc(C)c5C)-n5c(C)nnc53)C4)CC2)C(C)(C)C)cc1 [Example 360] | > 90
0.01 to 0.1 | Cc1cc(C(C(=O)N2C[C@H](O)C[C@H]2C(=O)NCc2ccc(Cl)cc2OCCOCCOCCOCCNC(=O)C[C@@H]2N=C(c3ccc(Cl)cc3)c3c(sc(C)c3C)-n3c(C)nnc32)C(C)C)on1 (stereo partly drawn) [Example 361] | 100

Compound | DC50 [µM] | Emax [%]
Cc1ncsc1-c1ccc([C@H](C)NC(=O)[C@@H]2C[C@@H](O)CN2C(=O)[C@@H](NC(=O)CN2CCC(O[C@H]3C[C@H](NC(=O)C[C@@H]4N=C(c5ccc(Cl)cc5)c5ccccc5-c5c(C)noc54)C3)CC2)C(C)(C)C)cc1 [Example 350, (2S,4R)-1-[(2S)-3,3-dimethyl-2-(2-{4-[(1,3-trans)-3-{2-[(7S)-9-(4-chlorophenyl)-3-methyl-5-oxa-4,8-diazatricyclo[8.4.0.0^2,^6]tetradeca-1(10),2(6),3,8,11,13-hexaen-7-yl]acetamido}cyclobutoxy]piperidin-1-yl}acetamido)butanoyl]-4-hydroxy-N-[(1S)-1-[4-(4-methyl-1,3-thiazol-5-yl)phenyl]ethyl]pyrrolidine-2-carboxamide] | < 0.01 | 100
Cc1ncsc1-c1ccc([C@H](CO)NC(=O)[C@@H]2C[C@@H](O)CN2C(=O)[C@@H](NC(=O)CN2CCC(O[C@H]3C[C@H](NC(=O)C[C@@H]4N=C(c5ccc(Cl)cc5)c5c(sc(C)c5C)-n5c(C)nnc54)C3)CC2)C(C)(C)C)cc1 [Example 351, (2S,4R)-1-[(2S)-3,3-dimethyl-2-(2-{4-[(1,3-trans)-3-{2-[(9S)-7-(4-chlorophenyl)-4,5,13-trimethyl-3-thia-1,8,11,12-tetraazatricyclo[8.3.0.0^2,^6]trideca-2(6),4,7,10,12-pentaen-9-yl]acetamido}cyclobutoxy]piperidin-1-yl}acetamido)butanoyl]-4-hydroxy-N-[(1R)-2-hydroxy-1-[4-(4-methyl-1,3-thiazol-5-yl)phenyl]ethyl]pyrrolidine-2-carboxamide] | < 0.01 | 100
Cc1ncsc1-c1ccc([C@@H](CO)NC(=O)[C@@H]2C[C@@H](O)CN2C(=O)[C@@H](NC(=O)CN2CCC(O[C@H]3C[C@H](NC(=O)C[C@@H]4N=C(c5ccc(Cl)cc5)c5c(sc(C)c5C)-n5c(C)nnc54)C3)CC2)C(C)(C)C)cc1 [Example 352, (2S,4R)-1-[(2S)-3,3-dimethyl-2-(2-{4-[(1,3-trans)-3-{2-[(9S)-7-(4-chlorophenyl)-4,5,13-trimethyl-3-thia-1,8,11,12-tetraazatricyclo[8.3.0.0^2,^6]trideca-2(6),4,7,10,12-pentaen-9-yl]acetamido}cyclobutoxy]piperidin-1-yl}acetamido)butanoyl]-4-hydroxy-N-[(1S)-2-hydroxy-1-[4-(4-methyl-1,3-thiazol-5-yl)phenyl]ethyl]pyrrolidine-2-carboxamide] | > 1 | < 20
[2H]C([2H])([2H])C([C@H](NC(=O)c1cc2cc(O[C@H]3C[C@@H](NC(=O)C[C@@H]4N=C(c5ccc(Cl)cc5)c5c(sc(C)c5C)-n5c(C)nnc54)C3)ccc2o1)C(=O)N1C[C@H](O)C[C@H]1C(=O)N[C@@H](C)c1ccc(-c2scnc2C)cc1)(C([2H])([2H])[2H])C([2H])([2H])[2H] [Example 364, (2S,4R)-1-[(2S)-3,3-bis(^2H3)methyl-2-({5-[(1,3-cis)-3-{2-[(9S)-7-(4-chlorophenyl)-4,5,13-trimethyl-3-thia-1,8,11,12-tetraazatricyclo[8.3.0.0^2,^6]trideca-2(6),4,7,10,12-pentaen-9-yl]acetamido}cyclobutoxy]-1-benzofuran-2-yl}formamido)(4,4,4-^2H3)butanoyl]-4-hydroxy-N-[(1S)-1-[4-(4-methyl-1,3-thiazol-5-yl)phenyl]ethyl]pyrrolidine-2-carboxamide] | < 0.01 | 100
